Data reported in US9204653B2, “5-fluoro pyrimidine derivatives” (DOW AGROSCIENCES LLC, priority 2008, dated 2015).
Like-named read-outs stand apart in the source and are kept apart here.

Test system: Mycosphaerella graminicola; Anamorph: Septoria tritici; Bayer Code SEPTTR
Assay: Leaf blotch of wheat, foliar fungicide treatment, one day protectant (1DP) or three day curative (3DC)
Format: in vivo, Septoria tritici on wheat plants (variety Yuma)
Conditions: Zymoseptoria tritici; for pest or weed control at 50 ppm / pest or weed control at 200 ppm: % disease control rating, one day protectant
[1] = 24 h, one day protectant (1DP), 25 ppm (first 1DP column), percent control rating, read-out: SETTTR 1DP 25 ppm
[2] = 24 h, one day protectant (1DP), 25 ppm as printed (second 1DP column), percent control rating, read-out: SETTTR 1DP 25 ppm
[3] = 72 h, three day curative (3DC), 25 ppm, percent control rating, read-out: SEPTTR 3DC 25 ppm
[4] = 72 h, three day curative (3DC), percent control rating, read-out: SEPTTR 3DC 100 ppm
[5] = 24 h, one day protectant (1DP), 25 ppm, rating of percent disease control, read-out: SETTTR 1DP 25 ppm
[6] = 24 h, one day protectant (1DP), rating of percent disease control, read-out: SEPTTR 1DP 100 ppm
[7] = 72 h, three day curative (3DC), 25 ppm, rating of percent disease control, read-out: SEPTTR 3DC 25 ppm
[8] = 72 h, three day curative (3DC), rating of percent disease control, read-out: SEPTTR 3DC 100 ppm

SMILES | pest or weed control at 25 ppm [1] [%] | pest or weed control at 25 ppm [2] [%] | pest or weed control at 25 ppm [3] [%] | pest or weed control at 100 ppm [4] [%] | pest or weed control at 25 ppm [5] [%] | pest or weed control at 100 ppm [6] [%] | pest or weed control at 25 ppm [7] [%] | pest or weed control at 100 ppm [8] [%] | further results
Fc1cnc(OCCc2ccccc2)nc1NCc1ccc2c(c1)OCO2 [Compound 904] |  |  |  |  |  |  |  |  | pest or weed control at 50 ppm (24 h): 0 to 25%; pest or weed control at 200 ppm (24 h): 26 to 50%
C/C(=N\Oc1ncc(F)c(N)n1)c1cnc(OCC(F)(F)F)nc1 [Compound 1001] | 26 to 50 | 76 to 100 | 26 to 50 | 76 to 100 |  |  |  |  | 
Nc1nc(OCc2ccc(F)c(Cl)c2)ncc1F [Compound 547] |  |  |  |  | 76 to 100 | 76 to 100 | 76 to 100 | 76 to 100 | 
CN(C)/C=N/c1nc(OCOC(=O)c2ccccc2)ncc1F [Compound 1085] | 76 to 100 | 76 to 100 | 76 to 100 | 76 to 100 |  |  |  |  | 
C=CCOc1ncc(F)c(N/N=C(\C)c2ccc(Cl)s2)n1 [Compound 1061] | 26 to 50 | 0 to 25 | 0 to 25 | 0 to 25 |  |  |  |  | 
N#Cc1ccc(COc2ncc(F)c(N)n2)cc1 [Compound 74] |  |  |  |  |  |  |  |  | pest or weed control at 25 ppm (24 h, one day protectant (1DP), 25 ppm, percent disease control rating, read-out: SETTTR 1DP 25 ppm): 51 to 75%; pest or weed control at 100 ppm (24 h, one day protectant (1DP), percent disease control rating, read-out: SEPTTR 1DP 100 ppm): 76 to 100%; pest or weed control at 25 ppm (72 h, three day curative (3DC), 25 ppm, percent disease control rating, read-out: SEPTTR 3DC 25 ppm): 0 to 25%; pest or weed control at 100 ppm (72 h, three day curative (3DC), percent disease control rating, read-out: SEPTTR 3DC 100 ppm): 0 to 25%
CC(C)C(=O)Oc1ncc(F)c(/N=C/N(C)C)n1 [Compound 420] |  |  |  |  | 76 to 100 | 76 to 100 | 76 to 100 | 76 to 100 | 
Nc1nc(OCc2cccc(Cl)c2)ncc1F [Compound 468] |  |  |  |  | 76 to 100 | 76 to 100 | 76 to 100 | 76 to 100 | 
COc1ncc(F)c(NNc2ccccn2)n1 [Compound 1050] | 0 to 25 | 0 to 25 | 0 to 25 | 26 to 50 |  |  |  |  | 
C=CCOc1ncc(F)c(NNc2ccccc2F)n1 [Compound 1077] | 0 to 25 | 0 to 25 | 0 to 25 | 26 to 50 |  |  |  |  | 
Nc1nc(OCCc2ccc(Cl)cc2)ncc1F [Compound 455] |  |  |  |  | 51 to 75 | 76 to 100 | 26 to 50 | 76 to 100 | 
C=CCOc1ncc(F)c(NOCc2ccccc2)n1 [Compound 1087] | 0 to 25 | 0 to 25 | 0 to 25 | 0 to 25 |  |  |  |  | 
CN(C)/C=N/c1nc(OS(=O)(=O)c2ccc(Cl)cc2)ncc1F [Compound 359] |  |  |  |  | 76 to 100 | 76 to 100 | 76 to 100 | 26 to 50 | 
Nc1nc(OCc2cscn2)ncc1F [Compound 275] |  |  |  |  | 76 to 100 | 76 to 100 | 76 to 100 | 76 to 100 | 
Nc1nc(OC(=O)c2ccccc2)ncc1F [Compound 413] |  |  |  |  | 76 to 100 | 76 to 100 | 76 to 100 | 76 to 100 | 
Fc1cnc(OCc2cc(Cl)cc(Cl)c2)nc1NCc1ccc(Cl)cc1 [Compound 868] |  |  |  |  |  |  |  |  | pest or weed control at 50 ppm (24 h): 51 to 75%; pest or weed control at 200 ppm (24 h): 76 to 100%
Nc1nc(OCc2ccsc2)ncc1F [Compound 508] |  |  |  |  | 76 to 100 | 76 to 100 | 76 to 100 | 76 to 100 | 
COc1cccc(COc2ncc(F)c(NC(=O)c3ccccc3)n2)c1 [Compound 191] |  |  |  |  | 76 to 100 | 76 to 100 | 76 to 100 | 76 to 100 | 
Nc1nc(OC(c2ccccc2)c2ccc(F)cc2)ncc1F (stereo not shown) [Compound 406] |  |  |  |  | 76 to 100 | 76 to 100 | 76 to 100 | 76 to 100 | 
O=[N+]([O-])c1ccccc1SNc1nc(OCc2ccc(F)c(F)c2)ncc1F [Compound 324] |  |  |  |  | 76 to 100 | 76 to 100 | 0 to 25 | 26 to 50 | 
